One experiment relates to CEM/VLB1000 cell line. Nature of the experiment: Cytotoxicity potentiation: enhancement of vinblastine cytotoxicity in MDR cell line (alamar blue). The format is cell-based, human. The following applies: Homo sapiens, midpoint of minimum and maximum cytotoxicity induced by 3-5 μg/mL vinblastine and compound, 48 hours incubation, alamar blue 24 hours, read-out: Cytotocicity Potentiation (EC50). Here is the method: Multidrug-resistant cell lines are easily obtainable for in vitro determination of drug sensitization by compounds of the present invention. In vitro potentiation of antineoplastic cytotoxicity by the imidazole derivatives of the present invention was measured in both CEM/VLB1000 and SK/VLB1000 cell lines. The multidrug resistant cell lines were obtained from Dr. Victor Ling, Ontario Cancer Institute, Toronto, Canada. The CEM/VLB 1000 cell line was maintained as a suspension in minimum essential medium supplemented with 10% fetal bovine serum in a humidied atmosphere of 95% air and 5% CO2 while the SK/VLB 1000 cell line was maintained as adherent cells using the identical medium conditions as the CEM cells. The CEM/VLB 1000 cells were seeded at a density of 5×10^4 cells/well in a 96 well microtiter plate while the SK/VLB 1000 cell line was seeded at a density of 2,500 cells/well after trypsinization.
(In general: Resazurin is reduced to fluorescent resorufin, in cell work by metabolically active cells.)
For `COC(=O)[C@@H]1C[C@H]1c1ccc(-c2nc(-c3ccc(N(C)C)cc3)c(-c3ccc(N(C)C)cc3)[nH]2)cc1` (relative stereo) [Example 101], the EC50 was determined as 0.2 µM.
Turning to `CN(C)c1ccc(-c2nc(-c3ccc(/C=C/c4nc5ccccc5o4)cc3)[nH]c2-c2ccc(N(C)C)cc2)cc1` [Example 56, 2-[trans-2-(2-benzoxazolyl)ethenylphenyl]-4,5-bis (4-N,N-dimethylaminophenyl) imidazole], the EC50 is 0.55 µM.
On to `CNc1ccc(-c2[nH]c(-c3ccc(/C=C/c4nc5ccccc5o4)cc3)nc2-c2ccc(N(C)C)cc2)cc1` [Example 57, 2-[trans-2-(2-benzoxazolyl)ethenylphenyl]-4-(4-N,N-dimethylaminophenyl)-5-(4-N-methylaminophenyl) imidazole], for which the EC50 worked out at 0.21 µM.
Regarding `CCN(CC)c1ccc(-c2nc(-c3ccc(/C=C/c4nc5ccccc5o4)cc3)[nH]c2-c2ccc(NC)cc2)cc1` [Example 58, 2-[trans-2-(2-benzoxazolyl)ethenylphenyl]-4-(4-N,N-diethylaminophenyl)-5-(4-N-methylaminophenyl) imidazole], the EC50 was 0.47 µM.
In the case of `CNc1ccc(-c2nc(-c3ccc(/C=C/c4nc5ccccc5o4)cc3)[nH]c2-c2ccc(N3CCCC3)cc2)cc1` [Example 60, 2-[trans-2-(2-benzoxazolyl)ethenylphenyl]-4-(4-N-methylaminophenyl)-5-(4-pyrrolidinophenyl) imidazole], the EC50 is 0.45 µM.
Consider `COCCNc1ccc(-c2[nH]c(-c3ccc(/C=C/c4nc5ccccc5o4)cc3)nc2-c2ccc(N(C)C)cc2)cc1` [Example 61, 2-[trans-2-(2-benzoxazolyl)ethenylphenyl]-4-(4-N,N-dimethylaminophenyl)-5-[4-(2-methoxyethylamino)phenyl] imidazole], for which the EC50 came to 0.16 µM.
Turning to `CN(C)c1ccc(-c2nc(-c3ccc(/C=C/c4nc5ccccc5s4)cc3)[nH]c2-c2ccc(N(C)C)cc2)cc1` [Example 62, 2-[trans-2-(2-benzthiazolyl)ethenylphenyl]-4,5-bis (4-N,N-dimethylaminophenyl) imidazole], the EC50 came to 1.03 µM.
The same measure, in the same setting: to `CNc1ccc(-c2[nH]c(-c3ccc(/C=C/c4nc5ccccc5s4)cc3)nc2-c2ccc(N(C)C)cc2)cc1` [Example 63, 2-[trans-2-(2-benzthiazolyl)ethenylphenyl]-4-(4-N-dimethylaminophenyl)-5-(4-N-methylaminophenyl) imidazole] belongs 0.32 µM; to `CN(C)c1ccc(-c2nc(-c3ccc(/C=C/C#N)cc3)[nH]c2-c2ccc(N(C)C)cc2)cc1` [Example 64, 2-[trans-2-(2-cyano)ethenylphenyl]-4,5-(4-N,N-dimethylaminophenyl) imidazole], 0.55 µM.
`COCCNc1ccc(-c2[nH]c(-c3ccc(/C=C/C#N)cc3)nc2-c2ccc(N(C)C)cc2)cc1` [Example 65]: the EC50 stood at 0.25 µM.
For the molecule `C=CCN(CC=C)c1ccc(-c2nc(-c3ccc(/C=C/C(=O)OC)cc3)[nH]c2-c2ccc(F)cc2)cc1` [Example 66, 2-(trans-2-methoxycarbonyl-ethenylphenyl)-4-(4-N,N-diallylaminophenyl)5-(4-fluoro-phenyl) imidazole], the EC50 is 0.85 µM.
Regarding `CNc1ccc(-c2nc(-c3ccc(/C=C/C(=O)OC)cc3)[nH]c2-c2ccc(N3CCCC3)cc2)cc1` [Example 67, 2-(trans-2-methoxycarbonyl-ethenylphenyl)-4-(4-N-methylaminophenyl)5-(4-pyrrolidinophenyl) imidazole], the EC50 came out at 0.098 µM.
Same read-out and setting: to `CNc1ccc(-c2nc(-c3ccc(/C=C/C(=O)OC)cc3)[nH]c2-c2ccc(N3CCCCC3)cc2)cc1` [Example 68, 2-(trans-2-methoxycarbonyl-ethenylphenyl) -4-(4-N-methylaminophenyl)5-(4-piperidinophenyl) imidazole] belongs 0.39 µM; to `CNc1ccc(-c2[nH]c(-c3ccc(/C=C/C(=O)OC)cc3)nc2-c2ccc(N(CCOC)CCOC)cc2)cc1` [Example 69, 2-(trans-2-methoxycarbonyl-ethenylphenyl)-4-[4-N,N-di(2methoxyethyl)aminophenyl]-5-(4-N-methylaminophenyl) imidazole], 0.33 µM; to `CNc1ccc(-c2[nH]c(-c3ccc(/C=C/C(=O)OC)cc3)nc2-c2ccc(-n3ccnc3)cc2)cc1` [Example 70, 2-(trans-2-methoxycarbonyl-ethenylphenyl)-4-[4-(1-imidazolyl)phenyl]-5(4-N-methylaminophenyl) imidazole], 0.5 µM.
For the molecule `COC(=O)/C=C/c1ccc(-c2nc(-c3ccc(N4CCOCC4)cc3)c(-c3ccc(N4CCOCC4)cc3)[nH]2)cc1` [Example 71, 2-(trans-2-methoxycarbonyl-ethenylphenyl)-4,5-bis (4-N-morpholinophenyl) imidazole], the EC50 was determined as 0.37 µM.
In the case of `COC(=O)/C=C/c1ccc(-c2nc(-c3ccc(N(C)C)cc3)c(-c3ccc(N4CCOCC4)cc3)[nH]2)cc1` [Example 72, 2-(trans-2-methoxycarbonyl-ethenylphenyl)-4-(4-N-dimethylaminophenyl)-5-(4-N-morpholinophenyl) imidazole], the EC50 is 0.32 µM.
`CNc1ccc(-c2nc(-c3ccc(/C=C/C(=O)OC)cc3)[nH]c2-c2ccc(N3CCOCC3)cc2)cc1` [Example 73, 2-(trans-2-methoxycarbonyl-ethenylphenyl)-4-(4-N-methylaminophenyl)5-(4-N-morpholinophenyl) imidazole]: the EC50 turned out to be 0.34 µM.
Consider `CCOC/C=C/c1ccc(-c2nc(-c3ccc(N(C)C)cc3)c(-c3ccc(NC)cc3)[nH]2)cc1` [Example 76, 2-[4-(3-ethoxy-trans-1-propen-1-yl)phenyl]-4-(4-N-dimethylaminophenyl)-5-(4-N-methylaminophenyl) imnidazole], for which the EC50 was 0.11 µM.
As for `CN(C)C/C=C/c1ccc(-c2nc(-c3ccc(N(C)C)cc3)c(-c3ccc(N(C)C)cc3)[nH]2)cc1` [Example 83, 2-[4-(3-N,N-dimethylamino-trans-1-propen-1-yl)phenyl]-4,5-bis (4-N,N-dimethylaminophenyl) imidazole], the EC50 is 1.3 µM.
Still for that read-out and setting: to `COCCOC/C=C/c1ccc(-c2nc(-c3ccc(N(C)C)cc3)c(-c3ccc(N(C)C)cc3)[nH]2)cc1` [Example 84, 2-{4-[3-(2-methoxy-ethoxy)-trans-1-propen-1-yl]phenyl}-4,5-bis (4-N,N-dimethylaminophenyl) imidazole] belongs 0.09 µM; to `CCCCOC/C=C/c1ccc(-c2nc(-c3ccc(N(C)C)cc3)c(-c3ccc(N(C)C)cc3)[nH]2)cc1` [Example 85, 2-[4-(3-butoxy-trans-1-propen-1-yl)phenyl]-4,5-bis (4-N,N-dimethylaminophenyl) imidazole], 0.11 µM.
For the molecule `CCOC/C=C/c1ccc(-c2nc(-c3ccc(N(CC)CC)cc3)c(-c3ccc(N(CC)CC)cc3)[nH]2)cc1` [Example 86, 2-[4-(3-ethoxy-trans-1-propen-1-yl)phenyl]-4,5-bis (4-N,N-diethylaminophenyl) imidazole], the EC50 turned out to be 0.26 µM.
On to `CCOC/C=C/c1ccc(-c2nc(-c3ccc(N(CC)CC)cc3)c(-c3ccc(NC)cc3)[nH]2)cc1` [Example 87, 2-[4-(3-ethoxy-trans-1-propen-1-yl)phenyl]-4-(4-N,N-diethylaminophenyl)5-(4-N-methylaminophenyl) imidazole], for which the EC50 is 0.06 µM.
With `COC/C=C/c1ccc(-c2nc(-c3ccc(N4CCCC4)cc3)c(-c3ccc(N4CCCC4)cc3)[nH]2)cc1` [Example 88, 2-[4-(3-methoxy-trans-1-propen-1-yl)phenyl]-4,5-bis (4-pyrrolidinophenyl) imidazole], the EC50 was determined as 0.26 µM.
`CCOC/C=C/c1ccc(-c2nc(-c3ccc(N4CCCC4)cc3)c(-c3ccc(N4CCCC4)cc3)[nH]2)cc1` [Example 89, 2-[4-(3-ethoxy-trans-1-propen-1-yl)phenyl]-4,5-bis (4-pyrrolidinophenyl) imidazole]: the EC50 came to 0.24 µM.
On to `CCOC/C=C/c1ccc(-c2nc(-c3ccc(N(C)C)cc3)c(-c3ccc(N4CCCC4)cc3)[nH]2)cc1` [Example 90, 2-[4-(3-ethoxy-trans-1-propen-1-yl)phenyl]-4-(4-N-dimethylaminophenyl)-5-(4-pyrrolidinophenyl) imidazole], for which the EC50 is 0.12 µM.
Regarding `CCOC/C=C/c1ccc(-c2nc(-c3ccc(NC)cc3)c(-c3ccc(N4CCCC4)cc3)[nH]2)cc1` [Example 91, 2-[4-(3-ethoxy-trans-1-propen-1-yl)phenyl]-4-(4-N-methylaminophenyl)-5(4-pyrrolidinophenyl) imidazole], the EC50 was 0.11 µM.

Staying with this experiment, now noted: midpoint of minimum and maximum cytotoxicity induced by 3-5 μg/mL vinblastine and compound, 48 hours incubation, alamar blue 24 hours, read-out: Cytotocicity Potentiation (EC50).
Turning to `CNc1ccc(-c2[nH]c(-c3ccc(/C=C/COc4ccccc4)cc3)nc2-c2ccc(N(C)C)cc2)cc1` [Example 78, 2-[4-(3-phenoxy-trans-1-propen-1-yl)phenyl]-4-(4-N-dimethylaminophenyl)-5-(4-N-methylaminopheny) imidazole], the EC50 was determined as 0.45 µM.
Turning to `CNc1ccc(-c2[nH]c(-c3ccc(/C=C/COc4ccc(OC)c(OC)c4)cc3)nc2-c2ccc(N(C)C)cc2)cc1` [Example 79, 2-{4-[3-(3,4-dimethoxy-phenoxy)-trans-1-propen-1-yl]phenyl}-4-(4-N-dimethylaminophenyl)-5-(4-N-methylaminopheny) imidazole], the EC50 worked out at 1.21 µM.
Regarding `CCN(CC)C/C=C/c1ccc(-c2nc(-c3ccc(N(C)C)cc3)c(-c3ccc(N(C)C)cc3)[nH]2)cc1` [Example 80, 2-[4-(3-N,N-diethylamino-trans-1-propen-1-yl)phenyl]-4,5-bis (4-N,N-dimethylaminophenyl) imidazole], the EC50 amounted to 0.88 µM.

As a reminder, the EC50 is the concentration giving half of the maximal effect.

The values are drawn from patent US5840721A, “Imidazole derivatives as MDR modulators” (Ontogen Corporation, priority 1997, dated 1998).
